{
  "source": "patent US20140336218A1",
  "about": "“ARFORMOTEROL AND TIOTROPIUM COMPOSITIONS AND METHODS FOR USE” (priority 2008, published 2014)",
  "key": {"[1]": {"tested_on": "COPD patients", "assay": "Rescue medication (levalbuterol MDI) use in 2-week clinical trial", "assay_type": "in vivo, human", "description": "(§1) This was a 2-week, prospective, multi-center (34 sites), randomized, modified blind, double dummy, parallel group study designed to evaluate the efficacy and safety of the combination of arformoterol 15 μg BID and tiotropium 18 μg QD (dosed sequentially) versus the individual mono-therapies in the treatment of COPD patients. The study was conducted according to the principles established by the Declaration of Helsinki (see, e.g., World Medical Association Declaration of Helsinki. Recommendations guiding physicians in biomedical research involving human subjects. JAMA 1997; 277:925-926.). Appropriate Institutional Review boards approved the protocol and written informed consent was obtained from the patients.\nDuring the study period, the use of LABAs or long-or short-acting anticholinergic bronchodilators (except for the study medication) was prohibited. Use of oral and inhaled corticosteroids was allowed as long as patients were on a stable dosing regimen for at least 14 days prior to study entry that was maintained throughout the study. Patients were required to withhold oral corticosteroids for at least 24 hours prior to pulmonary function testing. Leukotriene modifiers and methylxanthines were not allowed for at least 7-days prior to study entry. Levalbuterol MDI (Xopenex® Sepracor Inc., Marlborough, Mass.) was supplied and used as-needed for rescue medications for acute bronchospasm and acute treatment of COPD symptoms throughout the trial. Patients were instructed to withhold the use of rescue medication for ≧6 hours prior to each clinic visit.\nAt the screening visit, baseline values were obtained for COPD symptoms, Modified Medical Research Council (MMRC) Dyspnea Scale, heart rate, vital signs, and pulmonary function tests. Medical event calendars and medication logs that were to be completed daily, and rescue medication were also dispensed. The medication logs were used to assess compliance by monitoring the number of UDV/DPI doses taken.\n(§2) Eligible patients were randomized to receive one of three treatments for 14 days: nebulized arformoterol 15 μg (Brovana®, Sepracor Inc., Marlborough, Mass.) BID and placebo DPI QD, nebulized placebo BID and tiotropium 18 μg (Spriva® HandiHaler® Boehringer Ingelheim, Ridgefield, Conn.) DPI QD, or nebulized arformoterol 15 μg BID and tiotropium 18 μg DPI QD. The nebulized drug was administered first using the PARI LC Plus® nebulizer driven by the Duraneb 3000® compressor (Pari: Pari Respiratory Equipment Inc., Midlothian, Va.) at a flow rate of 3.3 L/minute followed (within 5 minutes) by the DPI administration (HandiHaler®). The tiotropium and placebo DPI capsules were identical in size and shape but differed in color."}, "[2]": {"tested_on": "COPD patients", "assay": "Spirometry (FEV1, FVC) in 2-week randomized, double dummy, parallel group clinical trial", "assay_type": "in vivo, human", "description": "as §1\nAll patients had non-asthmatic COPD (including emphysema and/or chronic bronchitis). […] They also were required to have a pre-bronchodilator baseline pulmonary function of FEV1>0.7 L, FEV1/FVC ratio of ≦70%, and FEV1≦65% predicted. Patients were excluded if they had life-threatening or unstable respiratory status within 30 days of the screening visit. Patients who changed their prescribed dose or type of COPD medication within 14 days prior to screening or who had ever used tiotropium bromide inhalation powder were excluded.\nas §2\nAt week 0 and week 2, medical event calendars and blood samples were collected and vital signs and heart measurements analyzed. At week 0, spirometry was performed pre-morning dose, immediately (within 5 minutes) and at 30 minutes, 1, 2, 4, 6, 8, 10, and 12 hours post-first dose. After the 12-hour pulmonary function test patients self-administered the evening dose of study medication. At week 2, serial spirometry was also performed as at week 0, as well as immediately (within 5 minutes) following the evening dose (administered 12 hours after the morning dose) and 12.5, 13, 14, 16, 23, and 24 hours post-morning dose. Inspiratory capacity was evaluated pre-dose and at 2 hours post-morning dose at week 0, and pre-dose and 2, 11, 14, and 24 hours post-morning dose at week 2. All inspiratory capacity measurements were the mean of acceptable inspiratory capacity maneuvers, two of which were reproducible. Prior to an inspiratory capacity maneuver a patient had to have a stable expiratory level for about 10 breaths. Once the stable level was achieved, at the end of exhalation of a normal breath the patient was asked to make a steady and full inhalation at normal inspiratory flow rates until the lungs were completely full, and then to exhale at a normal rate.\nAll pulmonary function values used were the highest among the three acceptable maneuvers. The Investigator ensured that all spirometry was performed in accordance with the American Thoracic Society/European Respiratory Society Standardisation of Spirometry guidelines (see, e.g., Miller M R, Hankinson J, Brusasco V, Burgos F, Casaburi R, Coates A, et al. Standardisation of spirometry. Eur Respir J 2005; 26:319-338; herein incorporated in its entirety by reference). Centralized over-reading of spirometry and inspiratory capacity pulmonary function measures were used for quality control."}, "[3]": {"tested_on": "COPD patients", "assay": "Adverse events in 2-week clinical trial", "description": "as §1, §2\nDescriptive statistics were calculated by treatment for baseline characteristics and each efficacy parameter. Adverse events were summarized using counts and percentages. All adverse events were coded using MedDRA (Medical Dictionary for Regulatory Activities (see, e.g., MedDRA and MSSO. The medical dictionary for regulatory activities 2008). A COPD exacerbation was pre-defined as an increase in symptoms that necessitated any change in baseline medication other than bronchodilators (e.g. anti-inflammatory agents, antibiotics, supplemental oxygen therapy, etc.) or caused the patient to require additional medical attention (hospitalization, emergency room visit, etc.)."}, "[4]": {"settings": "<50% percent predicted FEV1, changes in levalbuterol MDI use at week 2"}, "[5]": {"settings": "ITT, week 2, change from baseline, levalbuterol rescue"}, "[6]": {"settings": "≧50% percent predicted FEV1, changes in levalbuterol MDI use at week 2"}, "[7]": {"settings": "ITT, change from baseline at week 2"}, "[8]": {"settings": "ITT, week 2, combined therapy versus the mono-therapy"}, "[9]": {"settings": "baseline percent predicted FEV1 <50%, week 2, combined versus the mono-therapy"}, "[10]": {"settings": "baseline percent predicted FEV1 <50%, week 2 from study baseline"}, "[11]": {"settings": "baseline percent predicted FEV1 ≧50%, week 2, combined versus the mono-therapy"}, "[12]": {"settings": "baseline percent predicted FEV1 ≧50%, week 2 from study baseline"}},
  "data": [
    {"smiles": "COc1ccc(C[C@@H](C)NC[C@H](O)c2ccc(O)c(NC=O)c2)cc1", "note": "[Arformoterol]", "values": [
      {"measurement": "Number of actuations per day, mean (SD)", "setting": "[1]; [4]", "value": "−2.1 (2.3) actuations per day"},
      {"measurement": "Used levalbuterol, n (%)", "setting": "[1]; [4]", "value": "45 (95.7) n (%)"},
      {"measurement": "Used levalbuterol, n (%)", "setting": "[1]; ITT, week 2", "value": "40 (52.6) n (%)"},
      {"measurement": "Number of actuations per day, mean (SD)", "setting": "[1]; [5]", "value": "−1.8 (2.2) actuations per day"},
      {"measurement": "Number of days per week, mean (SD)", "setting": "[1]; [5]", "value": "−2.1 (2.6) days per week"},
      {"measurement": "Number of actuations per day, mean (SD)", "setting": "[1]; [6]", "value": "−1.3 (2.0) actuations per day"},
      {"measurement": "Used levalbuterol, n (%)", "setting": "[1]; [6]", "value": "26 (90)^ n (%)"},
      {"measurement": "mean FEV1 improvement 2-hours after the evening dose", "setting": "[2]; 2 hours after evening dose", "value": "~182", "unit": "mL"},
      {"measurement": "mean FEV1 improvement 2-hours after the morning dose", "setting": "[2]; 2 hours after morning dose", "value": "approximately 213 mL"},
      {"measurement": "Peak Change in FEV1 over 12 hours, mean (SD)", "setting": "[2]; [7]", "value": "0.27 (0.21) L"},
      {"measurement": "Peak change in FVC over 12 hours, mean (SD)", "setting": "[2]; [7]", "value": "0.48 (0.37) L"},
      {"measurement": "Change in FEV1AUC0-24, mean (SD)", "setting": "[2]; ITT, change from baseline at week 2, time normalized", "value": "0.10 (0.21) L"},
      {"measurement": "Difference between combined therapy and mono-therapies in change in FEV1AUC0-24, LS mean", "setting": "[2]; [8]", "value": 0.12, "unit": "L"},
      {"measurement": "Difference between combined therapy and mono-therapies in change in trough FEV1, LS mean", "setting": "[2]; [8]", "value": 0.07, "unit": "L"},
      {"measurement": "Difference between combined therapy and mono-therapies in peak change in FEV1 over 12 hours, LS mean", "setting": "[2]; [8]", "value": 0.11, "unit": "L"},
      {"measurement": "Difference between combined therapy and mono-therapies in peak change in FVC over 12 hours, LS mean", "setting": "[2]; [8]", "value": 0.12, "unit": "L"},
      {"measurement": "Change in trough FEV1, mean (SD)", "setting": "[2]; ITT, week 2, trough = 24 hour time point after morning dose", "value": "0.09 (0.23) L"},
      {"measurement": "Difference between combined therapy and mono-therapies in change in FEV1AUC0-24, LS mean", "setting": "[2]; [9]", "value": 0.11, "unit": "L"},
      {"measurement": "Difference between combined therapy and mono-therapies in peak change in FEV1 over 12 hours, LS mean", "setting": "[2]; [9]", "value": 0.11, "unit": "L"},
      {"measurement": "Difference between combined therapy and mono-therapies in peak change in FVC over 12 hours, LS mean", "setting": "[2]; [9]", "value": 0.15, "unit": "L"},
      {"measurement": "Difference between combined therapy and mono-therapies in trough FEV1, LS mean", "setting": "[2]; [9]", "value": 0.08, "unit": "L"},
      {"measurement": "Peak Change in FEV1 over 12 hours, mean (SD)", "setting": "[2]; [10]", "value": "0.31 (0.23) L"},
      {"measurement": "Peak change in FVC over 12 hours, mean (SD)", "setting": "[2]; [10]", "value": "0.56 (0.41) L"},
      {"measurement": "Trough FEV1 (change in FEV1 at 24 hours post-dose), mean (SD)", "setting": "[2]; [10]", "value": "0.13 (0.23) L"},
      {"measurement": "Change in FEV1AUC0-24, mean (SD)", "setting": "[2]; baseline percent predicted FEV1 <50%, week 2 from study baseline (pre-dose week 0)", "value": "0.15 (0.22) L"},
      {"measurement": "Difference between combined therapy and mono-therapies in change in FEV1AUC0-24, LS mean", "setting": "[2]; [11]", "value": 0.14, "unit": "L"},
      {"measurement": "Difference between combined therapy and mono-therapies in peak change in FEV1 over 12 hours, LS mean", "setting": "[2]; [11]", "value": 0.10, "unit": "L"},
      {"measurement": "Difference between combined therapy and mono-therapies in peak change in FVC over 12 hours, LS mean", "setting": "[2]; [11]", "value": 0.08, "unit": "L"},
      {"measurement": "Difference between combined therapy and mono-therapies in trough FEV1, LS mean", "setting": "[2]; [11]", "value": 0.05, "unit": "L"},
      {"measurement": "Peak Change in FEV1 over 12 hours, mean (SD)", "setting": "[2]; [12]", "value": "0.22 (0.17) L"},
      {"measurement": "Peak change in FVC over 12 hours, mean (SD)", "setting": "[2]; [12]", "value": "0.34 (0.25) L"},
      {"measurement": "Trough FEV1 (change in FEV1 at 24 hours post-dose), mean (SD)", "setting": "[2]; [12]", "value": "0.02 (0.21) L"},
      {"measurement": "Change in FEV1AUC0-24, mean (SD)", "setting": "[2]; baseline percent predicted FEV1 ≧50%, week 2 from study baseline (pre-dose week 0)", "value": "0.03 (0.19) L"},
      {"measurement": "mean improvement in peak FVC", "setting": "[2]; from baseline after 2 weeks of treatment", "value": 48, "unit": "mL"},
      {"measurement": "LS mean (±SE) peak improvement in FEV1 from visit pre-dose", "setting": "[2]; from visit pre-dose", "value": 0.19, "unit": "L"},
      {"measurement": "Any adverse event, n (%)", "setting": "[3]; ITT, 2 weeks of treatment", "value": "19 (25.0) n (%)"},
      {"measurement": "COPD exacerbations", "setting": "[3]; ITT, 2 weeks of treatment", "value": "3 (3.9) n (%)"},
      {"measurement": "Discontinued due to adverse events, n (%)", "setting": "[3]; ITT, 2 weeks of treatment", "value": "2 (2.6) n (%)"},
      {"measurement": "Overall cardiovascular adverse events, n (%)", "setting": "[3]; ITT, 2 weeks of treatment", "value": "2 (2.6) n (%)"},
      {"measurement": "Serious adverse events, n (%)", "setting": "[3]; ITT, 2 weeks of treatment", "value": "1 (1.3) n (%)"},
      {"measurement": "patients reporting a serious adverse event", "setting": "[3]; small intestinal obstruction", "value": "one"}
    ]}
  ]
}
